# Read-outs that look alike come from different tables or passages of the source. Marks after values point to notes of the source that are not given here. Starred links: 1 amine or outer side, 2 acyl side, 3 side chain; linkers in the order of their positions; H or OH if unused. Non-standard residues stand in square brackets, D forms with d. Residues, ends and D or L forms follow the SMILES beside them. Groups on a side chain read outwards from the residue. *: point of attachment. C20 diacid = O=C(O)CCCCCCCCCCCCCCCCCCC(=O)*; γGlu = O=C(O)[C@H](CCC(=O)[*:2])N[*:1]; NMeI = CC[C@H](C)[C@H](NC)C(=O)O; Nle = CCCC[C@H](N)C(=O)O; AEEA = NCCOCCOCC(=O)O; Aib = CC(C)(N)C(=O)O
# How the values were obtained:
# [1] = Effect on acute food intake in mice; format: in vivo; settings: single subcutaneous dose
# Description: Male NMRI mice were obtained from JanVier (JanVier Labs, France) at 5 weeks of age. The animals were group-housed 4 mice pr. cage under a 12/12 h dark-light cycle, light off at 1 PM. Room temperature was controlled to 22°C ± 1°C, with 60 % ± 20% humidity. Animals had ad libitum access to regular rodent chow (Altromin 1324, Brogaarden, Denmark) and tap water.
# Animals were transferred 5-7 days before the start of the study to a real-time food intake monitoring system, HM-2 system (MBRose, Denmark) to allow acclimatization to experimental conditions. As the animals were uniquely identified with microchips, each individual animal was identified by its microchip upon entry and exit from the food channel. Randomization of the mice for each study group (n=7-8) was based on body weight measured the day before the start of the study. A vehicle-treated group was included in each experiment. Six hours before the start of the dark phase, animals were fasted. One hour before the dark phase, animals were dosed once subcutaneously with test peptide. Food intake was reported hourly for a period of 72 hours. The percentage of food intake reduction was normalized to average food intake from the vehicle group. Statistical significance was evaluated using One-way analysis of variance with Dunnett's multiple comparison test. P < 0.05 was considered statistically significant.
# Selected compounds were tested according to the general procedure on acute food intake in mice to determine the effect of a single subcutaneous dose on food intake in mice over 3 days.
# hCRHR2 = target: T1, hCRHR2 (Homo sapiens, UniProt Q13324); experiment: HTRF cAMP assay, determination of hCRHR2 potency (peptide libraries 5 conc., purified peptides 11 conc.); format: cell-based
# T1 sequence (Q13324 1-411): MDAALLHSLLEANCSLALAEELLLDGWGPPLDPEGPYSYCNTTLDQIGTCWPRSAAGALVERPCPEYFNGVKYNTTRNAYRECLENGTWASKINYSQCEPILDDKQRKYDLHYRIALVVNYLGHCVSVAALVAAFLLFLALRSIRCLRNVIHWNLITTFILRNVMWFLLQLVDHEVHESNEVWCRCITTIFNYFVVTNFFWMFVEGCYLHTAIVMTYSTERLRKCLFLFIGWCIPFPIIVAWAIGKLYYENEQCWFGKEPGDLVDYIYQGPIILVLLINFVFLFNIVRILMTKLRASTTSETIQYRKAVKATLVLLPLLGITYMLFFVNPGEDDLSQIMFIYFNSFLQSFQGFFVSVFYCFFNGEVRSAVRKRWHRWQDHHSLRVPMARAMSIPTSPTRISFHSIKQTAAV
# Summary of the method: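 EC50 derived by variable-slope sigmoid regression of FRET-based cAMP data; cellular cAMP displaced d2-labelled tracer from cryptate anti-cAMP antibody. Stable human CRHR2 CHO-K1 suspension cells, revived from frozen stocks just before the run.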
# hCRHR1 = target: T2, hCRHR1 (Homo sapiens, UniProt P34998); experiment: HTRF cAMP assay, determination of hCRHR1 potency (peptide libraries 5 conc., purified peptides 11 conc.); format: cell-based
# T2 sequence (P34998 24-415): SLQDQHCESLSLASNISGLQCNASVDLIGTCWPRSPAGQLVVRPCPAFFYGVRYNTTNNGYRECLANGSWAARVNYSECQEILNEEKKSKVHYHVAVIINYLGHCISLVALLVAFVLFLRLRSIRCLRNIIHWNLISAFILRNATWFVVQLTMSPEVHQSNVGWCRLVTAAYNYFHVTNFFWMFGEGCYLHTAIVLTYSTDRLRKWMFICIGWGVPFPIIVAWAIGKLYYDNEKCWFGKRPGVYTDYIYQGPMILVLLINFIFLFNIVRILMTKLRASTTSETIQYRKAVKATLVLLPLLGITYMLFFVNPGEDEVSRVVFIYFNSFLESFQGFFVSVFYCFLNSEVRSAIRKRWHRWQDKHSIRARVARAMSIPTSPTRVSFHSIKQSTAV
# Summary of the method: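 Cellular cAMP was read by time-resolved FRET between d2-labelled cAMP and cryptate anti-cAMP antibody. The cells were freshly thawed suspension CHO-K1 cells stably expressing human CRHR1.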
# [2] = Table 5, purified peptides, read-out: hCRHR2 EC50
# [3] = Table 5, purified peptides, read-out: hCRHR1 EC50
SMILES,"% FI compared to vehicle, 24 h post-dosing ([1]; 30 nmol/kg)","% FI compared to vehicle, 24 h post-dosing ([1]; 100 nmol/kg)","% FI compared to vehicle, 24 h post-dosing ([1]; 300 nmol/kg)","EC50 (hCRHR2; Table 4, library peptides having X^38 = Nle, read-out: hCRHR2 pEC50 (converted))",Selectivity ratio (hCRHR1/ hCRHR2) (hCRHR2; Table 5),EC50 (hCRHR2; [2]),"EC50 (hCRHR1; Table 4, library peptides having X^38 = Nle, read-out: hCRHR1 pEC50 (converted))",EC50 (hCRHR1; [3]),"EC50 (hCRHR2; Table 3, matched molecular pairs X^38 L vs Nle, peptide library of Example 4, read-out: hCRHR2 pEC50 (converted))",Selectivity ratio (hCRHR1/ hCRHR2) (hCRHR2; hCRHR1-EC50/hCRHR2-EC50),"EC50 (hCRHR2; purified peptides, CHO-K1 cells stably expressing hCRHR2, cAMP HTRF, read-out: hCRHR2 EC50)","EC50 (hCRHR1; Table 3, matched molecular pairs X^38 L vs Nle, peptide library of Example 4, read-out: hCRHR1 pEC50 (converted))","EC50 (hCRHR1; purified peptides, CHO-K1 cells stably expressing hCRHR1, cAMP HTRF, read-out: hCRHR1 EC50)","EC50 (hCRHR1; stable cell system, Table 10, read-out: Stable EC50 (nM) hCRHR 1)"
CCCC[C@H](NC(=O)[C@@H](NC(=O)[C@H](CCC(=O)O)NC(=O)[C@H](C)NC(=O)[C@H](CC(N)=O)NC(=O)C(C)(C)NC(=O)[C@H](CCCCNC(=O)COCCOCCNC(=O)COCCOCCNC(=O)CC[C@H](NC(=O)CC[C@H](NC(=O)CCCCCCCCCCCCCCCCCCC(=O)O)C(=O)O)C(=O)O)NC(=O)[C@H](C)NC(=O)[C@H](CCC(N)=O)NC(=O)[C@H](CCC(=O)O)NC(=O)[C@H](CCCNC(=N)N)NC(=O)[C@H](C)NC(=O)[C@H](C)NC(=O)[C@H](CCCNC(=N)N)NC(=O)[C@H](C)NC(=O)[C@H](CCCNC(=N)N)NC(=O)[C@H](C)NC(=O)[C@H](CCC(N)=O)NC(=O)[C@H](CO)NC(=O)[C@H](CC(C)C)NC(=O)[C@H](CC(C)C)NC(=O)[C@@H](NC(=O)[C@H](CCC(N)=O)NC(=O)[C@H](CC(C)C)NC(=O)[C@H](CC(C)C)NC(=O)CNC(=O)[C@@H](NC(=O)[C@@H]1CCCN1C(=O)[C@@H](NC(=O)[C@H](CC(=O)O)NC(=O)[C@H](CC(C)C)NC(=O)[C@H](CO)NC(=O)[C@H](CC(C)C)NC(=O)[C@@H](NC(=O)[C@@H](NC)[C@@H](C)CC)C(C)C)C(C)C)[C@@H](C)CC)[C@@H](C)CC)[C@@H](C)CC)C(=O)N[C@@H](C)C(=O)N[C@@H](CCC(=O)O)C(=O)N[C@H](C(N)=O)C(C)C [compound 132] (H-[NMeI]VLSLDVPIGLLQILLSQARARAAREQAK([AEEA-AEEA-γGlu-γGlu-C20 diacid])[Aib]NAEI[Nle]AEV-NH2),46.64*** %,18.5*** %,20.04*** %,0.02 nM,>6494,0.77 nM,794 nM,> 5000 nM,–,–,–,–,–,–
CCCC[C@H](NC(=O)[C@@H](NC(=O)[C@H](CCC(=O)O)NC(=O)[C@H](C)NC(=O)[C@H](CC(N)=O)NC(=O)[C@H](CCC(=O)O)NC(=O)[C@H](CCCCNC(=O)COCCOCCNC(=O)COCCOCCNC(=O)CC[C@H](NC(=O)CC[C@H](NC(=O)CCCCCCCCCCCCCCCCCCC(=O)O)C(=O)O)C(=O)O)NC(=O)[C@H](C)NC(=O)[C@H](CCC(N)=O)NC(=O)[C@H](CCC(=O)O)NC(=O)[C@H](CCCNC(=N)N)NC(=O)[C@H](C)NC(=O)[C@H](C)NC(=O)[C@H](CCCNC(=N)N)NC(=O)[C@H](C)NC(=O)[C@H](CCCNC(=N)N)NC(=O)[C@H](C)NC(=O)[C@H](CCC(N)=O)NC(=O)[C@H](CO)NC(=O)[C@H](CC(C)C)NC(=O)[C@H](CC(C)C)NC(=O)[C@@H](NC(=O)[C@H](CCC(N)=O)NC(=O)[C@H](CC(C)C)NC(=O)[C@H](CC(C)C)NC(=O)CNC(=O)[C@@H](NC(=O)[C@@H]1CCCN1C(=O)[C@@H](NC(=O)[C@H](CC(=O)O)NC(=O)[C@H](CC(C)C)NC(=O)[C@H](CO)NC(=O)[C@H](CC(C)C)NC(=O)[C@@H](NC(=O)[C@@H](NC)[C@@H](C)CC)C(C)C)C(C)C)[C@@H](C)CC)[C@@H](C)CC)[C@@H](C)CC)C(=O)N[C@@H](C)C(=O)N[C@@H](CCC(=O)O)C(=O)N[C@H](C(N)=O)C(C)C [compound 101] (H-[NMeI]VLSLDVPIGLLQILLSQARARAAREQAK([AEEA-AEEA-γGlu-γGlu-C20 diacid])ENAEI[Nle]AEV-NH2),30.85*** %,21.44*** %,8.09*** %,–,5435,0.92 nM,–,> 5000 nM,–,–,–,–,–,–
CC[C@H](C)[C@H](N)C(=O)N[C@H](C(=O)N[C@@H](CC(C)C)C(=O)N[C@@H](CO)C(=O)N[C@@H](CC(C)C)C(=O)N[C@@H](CC(=O)O)C(=O)N[C@H](C(=O)N1CCC[C@H]1C(=O)N[C@H](C(=O)NCC(=O)N[C@@H](CC(C)C)C(=O)N[C@@H](CC(C)C)C(=O)N[C@@H](CCC(N)=O)C(=O)N[C@H](C(=O)N[C@@H](CC(C)C)C(=O)N[C@@H](CC(C)C)C(=O)N[C@@H](CCC(=O)O)C(=O)N[C@@H](CCC(N)=O)C(=O)N[C@@H](C)C(=O)N[C@@H](CCCNC(=N)N)C(=O)N[C@@H](C)C(=O)N[C@@H](CCCNC(=N)N)C(=O)N[C@@H](C)C(=O)N[C@@H](C)C(=O)N[C@@H](CCCNC(=N)N)C(=O)N[C@@H](CCC(=O)O)C(=O)N[C@@H](CCC(N)=O)C(=O)N[C@@H](C)C(=O)N[C@@H](CCCCNC(=O)COCCOCCNC(=O)COCCOCCNC(=O)CC[C@H](NC(=O)CC[C@H](NC(=O)CCCCCCCCCCCCCCCCCCC(=O)O)C(=O)O)C(=O)O)C(=O)N[C@H](C(=O)N[C@@H](CC(N)=O)C(=O)N[C@@H](C)C(=O)N[C@@H](CCC(=O)O)C(=O)N[C@H](C(=O)N[C@@H](CC(C)C)C(=O)N[C@@H](C)C(=O)N[C@@H](CCC(=O)O)C(=O)N[C@H](C(N)=O)C(C)C)[C@@H](C)CC)[C@@H](C)O)[C@@H](C)CC)[C@@H](C)CC)C(C)C)C(C)C [SEQ ID NO: 3] (H-IVLSLDVPIGLLQILLEQARARAAREQAK([AEEA-AEEA-γGlu-γGlu-C20 diacid])TNAEILAEV-NH2),67.63*** %,30.75*** %,30.66*** %,–,>4546,–,–,> 5000 nM,0.501 nM,>4546,1.1 nM,25100 nM,> 5000 nM,> 5000 nM

# Reference: patent publication EP4810052A2, “HCRHR2 SELECTIVE POLYPEPTIDES” (Gubra A/S, priority 2023, dated 2026)
